Patent US12258377B2 (Scancell Limited, priority 2012, dated 2025)
Ends that are not written are not given here.

Legend:
[1] = system: T2 or B16HHD tumour cells; assay: 51Cr-release assay, vim 65 cit CTL lines against HLA-A2 positive target cells; type: cell-based; conditions: peptide pulsed HLA-A2 positive target cells
Protocol: Target cells were labelled for 1 hr with 1.85 MBq sodium (^51Cr) chromate (Amersham, Essex, UK) with or without 10 μg/ml peptide. Post incubation they were washed 3 times in RPMI. Targets 5×10^3/well of a 96-well V-bottomed plates were set up and co incubated with different densities of effector cells in a final volume of 200 μl of RPMI, 10% FCS (Sigma), 20 mM HEPES buffer, 2 mM L-glutamine, 100 units/ml penicillin and 100 μg/ml streptomycin. After 20 hrs at 37° C., 50 μl of supernatants were removed from each well and transferred to a Lumaplate (Packard, Rigaweg, the Netherlands). Plates were read on a Topcount Microplate Scintillation Counter (Packard). Percentage specific lysis was calculated using the following formula: specific lysis=100×[(experimental release−spontaneous release)/(maximum release−spontaneous release)].

splenocytes [2] = assay: Ex vivo elispot assay on splenocytes of immunised HLA-DR1 / HLA-A2/DR1 (HHDII/DR1) transgenic mice; type: in vivo; conditions: stimulation with citrullinated peptide; HLA-A2/DR1 mice
PBMC = assay: Proliferation assay of PBMC from cancer patients; type: cell-based, human; conditions: PBMC stimulated with 10 μg/ml peptide for 4, 7 and 11 days, 3H-thymidine
Protocol: PBMC were isolated from freshly drawn heparinised blood by Ficol-Hypaque (Sigma) gradient centrifugation. PBMC (1.5×10^6 cells/well) were stimulated with single peptides (final concentration 10 μg/ml) in RPMI containing 5% pooled autologous human serum, 2 mM glutamine, 20 mM HEPES and Penicillin-streptomycin (1%) in a final volume of 2 ml. Stimulation with purified protein derivative, PPD (final concentration 10 μg/ml) served as a positive control for the proliferative capacity of PBMC. As a negative control PBMC were incubated with medium alone. The PBMC were cultured at 37° C. in an atmosphere of 5% CO2 for 4, 7 and 11 days. To assess proliferation at these times points 100 μl in triplicate from each culture was aliquoted into a round bottom well of a 96 well plate and ^3H-thymidine added (0.0185 MBq/well) and incubated at 37° C. for a further 8 hours. The cultures were harvested onto unifilter plates and incorporation of ^3H-thymidine was determined by β-scintillation counting. The results were assessed by calculating the stimulation index (SI) as the ratio of the mean of counts per minute (cpm) of epitope-stimulated to the mean of unstimulated cultures. The proliferative assay was considered positive when SI >2.5.

splenocytes [3] = assay: Ex vivo elispot assay on splenocytes of immunised HLA-DR4 transgenic mice; type: in vivo; conditions: 25 μg peptide with CpG and MPLA day 0, peptide 5 μM
Protocol: (§1) C57BL/6 mice (Charles River, UK), HLA-DR4 mice (Taconic, USA), HHDII mice (Pasteur institute, France) and HHDII/DRI mice (Pasteur institute, France) were used, aged between 8 and 12 weeks, and cared for by the staff at Nottingham Trent University. All work was carried out under a Home Office project license. Peptides were dissolved in 10% Dimethylformamide to 1 mg/ml and then emulsified (a series of dilutions) with different adjuvants: CpG and MPLA 6 μg/mouse of each (Invivogen, UK), Incomplete Freund's […] (Sigma, UK), and GMCSF 10 μg/mouse (Peprotech, UK). Peptides (25 μg/mouse) were injected subcutaneously at the base of the tail. DNA (1 μg/mouse) was coated onto 1.0 μm gold particles (BioRad, Hemel Hempstead, UK) using the manufacturer's instructions and administered intradermally by genegun (BioRad). Homspera (10 nM/mouse) (PeptideSynthetics, UK) was injected intradermally with genegun immunisation. Mice were immunized at either day 0 for peptide immunisation or days, 0, 7, and 14 for peptide and genegun immunisation. Spleens were removed for analysis at day 14 for peptide and day 20 for peptide or genegun immunisation unless stated otherwise. 400 μg Anti-CD25 antibody (PC61) was administered i.p. in saline 3 days prior to the immunisation. 200 μg Anti-CTLA-4 antibody (UC 10-4F, 10-11) was administered i.p. in saline at day 7 and 14 with either genegun or peptide immunisation.
(§2) Elispot assays were performed using murine IFNγ, IL-17 and IL-10 capture and detection reagents according to the manufacturer's instructions (Mabtech, Sweden). In brief, anti-IFNγ, IL-17 and IL-10 antibodies were coated onto wells of 96-well Immobilin-P plate. Synthetic peptides (at a variety of concentrations) and 5×10^5 per well splenocytes were added to the wells of the plate in triplicate. Tumour target cells were added where relevant at 5×10^4/well in triplicate and plates incubated for 40 hrs at 37° C. After incubation, captured IFNγ, […], IL-17 and IL-10 were detected by biotinylated anti-IFNγ, IL-17 and IL-10 antibodies and developed with a strepatavidin alkaline phosphatase and chromogenic substrate. Spots were analysed and counted using an automated plate reader (Cellular Technologies Ltd). Functional avidity was calculated as the concentration mediating 50% maximal effector function using a graph of effector function versus peptide concentration.

splenocytes [4] = assay: Ex vivo elispot assay on splenocytes of immunised HLA-DR1 / HLA-A2/DR1 (HHDII/DR1) transgenic mice; type: in vivo; conditions: HLA-A2/DR1 mice
Protocol: as §1, §2

EL4 HHD cells = assay: IFNg elispot of splenocytes against EL4 HHD tumour target cells; type: cell-based, HLA-A2/DR1 transgenic mice; conditions: EL4 HHD over HLA mismatched B16 cells
Protocol: as §2

[5] = 25 μg citrullinated peptide day 0, day 14

SAVRLRSSVPGVR [citrullinated vim 65 peptide] (not fully specified; also: citrullinated, positions not given here)
cytotoxicity (chromium release) [1]: cytotoxicity of peptide pulsed HLA-A2 positive target cells | phenotype of cells producing IFNγ and TNFa (intracellular cytokine staining) (splenocytes [2]): CD8 positive | patients showing a proliferative response (SI >2.5) (PBMC; listed as citrullinated vim 65-77): 4/9 | patients showing a proliferative response (SI >2.5) (PBMC; listed as vim 65 cit): three of eight | IL-17 elispot response to citrullinated peptide, mean (splenocytes [3]; day 14): 550 /million splenocytes | IL-17 elispot response to wild type peptide, mean (splenocytes [3]; day 14): no responses | IFNγ elispot response to citrullinated peptide, mean (splenocytes [3]; day 14 splenocytes): 550 /million splenocytes | IFNγ elispot response to wild type peptide, mean (splenocytes [3]; day 14 splenocytes): no responses | IFNγ elispot response to citrullinated peptide (splenocytes [4]; [5]): high frequency IFNγ responses | IFNγ elispot response to wild type peptide (splenocytes [4]; [5]): some cross reactivity to the wild type peptide | IL-10 elispot response to citrullinated peptide (splenocytes [4]; [5]): Low frequency IL-10 responses | IFNγ response with blockade of MHC class II (splenocytes [4]; L243 HLA-DR blocking antibody): does not eliminate the citrullinated peptide specific response | recognition of tumour target cells ex vivo (EL4 HHD cells): good recognition of transgenic HLA-A2 engineered EL4 cell line (EL4 HHD)
